Where two headings read alike, the source gives them in different places.
Key:
[1] = Target inhibition: circulating levels in healthy volunteers as multiples of whole blood assay IC50; assay type: in vivo, human
Protocol: The compound according to Formula II was dosed daily in healthy volunteers at 200 mg QD and 100 mg BID.
The resulting levels of Formula II and Formula I were then measured and plotted (FIG. 5) as multiples of their respective IC50 as determined by the Whole Blood assay described above in Example 3.4.

[2] = Single dose pharmacokinetics in animals, rat; assay type: in vivo, Sprague-Dawley rats
Protocol: Pharmacokinetic studies were performed in various animal species dosed with the compound according to Formula II to determine the exposure to the compound according to Formula I as well as its apparent terminal half life (T1/2), when possible. […]
Temperature was maintained at approximately 22° C., and food and water were provided ad libitum.
The compound according to […] was formulated in 0.5% methylcellulose and dosed orally to 3 or 6 animals as a single esophageal gavage at dose ranging from 15 to 180 mg/kg under a dosing volume of 5 or 10 mL/kg.
The compound according to Formula II was formulated in 0.5% methylcellulose and dosed orally to 3 animals (or 3 mouse/time points) as a single esophageal gavage at dose ranging from 15 to 45 mg/kg under a dosing volume of 5 or 10 mL/kg.
Blood samples were collected over a 24-h period via the jugular vein (dog, minipig), ear blood vessel (rabbit), cardiac puncture (mouse) or retro-orbital sinus (rat) with lithium heparin as anti-coagulant. Whole blood samples were centrifuged and the resulting plasma samples were stored at −20° C. pending analysis.
Plasma concentrations of the compound according to Formula I and of the compound according to Formula II were determined by an LC-MS/MS method with a limit of quantification ≦10.0 ng/mL for both Formula I and Formula II for all species.
Pharmacokinetic parameters were calculated using a statistical analysis package (WinNonLin (Pharsight, Sunnyvale, Calif.: CA 94086, USA).

[3] = tested on: IFNα-induced STAT1 phosphorylation (JAK1/TYK2 pathway); assay: Human whole blood assay (hWBA), IFNα stimulation, phospho-STAT1 on CD4+ cells; assay type: cell-based; conditions: 6 different donors
Protocol: A flow cytometry analysis was performed to establish JAK1 over JAK2 compound selectivity ex vivo using human whole blood. Therefore, blood is taken from human volunteers who gave informed consent. Blood is then equilibrated for 30 min at 37° C. under gentle rocking, then aliquoted in Eppendorf tubes. Compound is added at different concentrations and incubated at 37° C. for 30 min under gentle rocking and subsequently stimulated for 20 min at 37° C. under gentle rocking with interleukin 6 (IL-6) for JAK1-dependent pathway stimulation, Interferon alpha (IFNα) for JAK1/TYK2 pathway stimulation, interleukin 2 (IL-2) for JAK1/JAK3 pathway stimulation or GM-CSF for JAK2-dependent pathway stimulation. Phospho-STAT1 (for IL-6- and IFNα-stimulated cells) and phospho-STAT5 (for IL-2- and GM-CSF-stimulated cells) levels are then evaluated using FACS analysis. […]
Cells were then washed once with 1×PBS and analyzed on a FACSCanto II flow cytometer (BD Biosciences).
50,000 total events were counted and Phospho-STAT1 positive cells were measured after gating on CD4+ cells, in the lymphocyte gate for IL-6- and IFNα-stimulated cells. Phospho-STAT5 positive cells were measured after gating on CD4+ cells, in the lymphocyte gate for IL-2-stimulated cells. Phospho-STAT5 positive cells were measured after gating on CD33+ cells. […]

[4] = Formula II at 100 mg BID, time point 0 h
[5] = Formula II at 100 mg BID, time point 0.5 h
[6] = Formula II at 100 mg BID, time point 1 h
[7] = Formula II at 100 mg BID, time point 2 h
[8] = Formula II at 100 mg BID, time point 3 h
[9] = Formula II at 100 mg BID, time point 5 h
[10] = Formula II at 100 mg BID, time point 8 h
[11] = Formula II at 100 mg BID, time point 12 h
[12] = Formula II at 100 mg BID, time point 12.5 h
[13] = Formula II at 100 mg BID, time point 13 h
[14] = Formula II at 100 mg BID, time point 14 h
[15] = Formula II at 100 mg BID, time point 15 h
[16] = Formula II at 100 mg BID, time point 17 h
[17] = Formula II at 100 mg BID, time point 20 h
[18] = Formula II at 100 mg BID, time point 24 h
[19] = Formula II at 200 mg QD, time point 0 h
[20] = Formula II at 200 mg QD, time point 0.5 h
[21] = Formula II at 200 mg QD, time point 1 h
[22] = Formula II at 200 mg QD, time point 2 h
[23] = Formula II at 200 mg QD, time point 3 h
[24] = Formula II at 200 mg QD, time point 5 h
[25] = Formula II at 200 mg QD, time point 8 h
[26] = Formula II at 200 mg QD, time point 24 h
[27] = male, Sprague-Dawley, plasma, after Formula II 45 mg/kg oral, read-out: exposure (expressed as AUC)

## O=C(Nc1nc2cccc(-c3ccc(CN4CCS(=O)(=O)CC4)cc3)n2n1)C1CC1 [Formula II, Cyclopropanecarboxylic acid {5-[4-(1,1-dioxo-thiomorpholin-4-ylmethyl)-phenyl]-[1,2,4]triazolo[1,5-a]pyridin-2-yl}-amide]
[1]; [4]
  Ratio [blood circulating dose]/[circulating dose at IC50 quantity]: 0.09
[1]; [5]
  Ratio [blood circulating dose]/[circulating dose at IC50 quantity]: 0.12
[1]; [6]
  Ratio [blood circulating dose]/[circulating dose at IC50 quantity]: 0.48
[1]; [7]
  Ratio [blood circulating dose]/[circulating dose at IC50 quantity]: 1.28
[1]; [8]
  Ratio [blood circulating dose]/[circulating dose at IC50 quantity]: 1.71
[1]; [9]
  Ratio [blood circulating dose]/[circulating dose at IC50 quantity]: 0.88
[1]; [10]
  Ratio [blood circulating dose]/[circulating dose at IC50 quantity]: 0.26
[1]; [11]
  Ratio [blood circulating dose]/[circulating dose at IC50 quantity]: 0.09
[1]; [12]
  Ratio [blood circulating dose]/[circulating dose at IC50 quantity]: 0.12
[1]; [13]
  Ratio [blood circulating dose]/[circulating dose at IC50 quantity]: 0.48
[1]; [14]
  Ratio [blood circulating dose]/[circulating dose at IC50 quantity]: 1.28
[1]; [15]
  Ratio [blood circulating dose]/[circulating dose at IC50 quantity]: 1.71
[1]; [16]
  Ratio [blood circulating dose]/[circulating dose at IC50 quantity]: 0.88
[1]; [17]
  Ratio [blood circulating dose]/[circulating dose at IC50 quantity]: 0.26
[1]; [18]
  Ratio [blood circulating dose]/[circulating dose at IC50 quantity]: 0.09
[1]; [19]
  Ratio [blood circulating dose]/[circulating dose at IC50 quantity]: 0.02
[1]; [20]
  Ratio [blood circulating dose]/[circulating dose at IC50 quantity]: 0.46
[1]; [21]
  Ratio [blood circulating dose]/[circulating dose at IC50 quantity]: 3.14
[1]; [22]
  Ratio [blood circulating dose]/[circulating dose at IC50 quantity]: 3.88
[1]; [23]
  Ratio [blood circulating dose]/[circulating dose at IC50 quantity]: 3.16
[1]; [24]
  Ratio [blood circulating dose]/[circulating dose at IC50 quantity]: 1.31
[1]; [25]
  Ratio [blood circulating dose]/[circulating dose at IC50 quantity]: 0.36
[1]; [26]
  Ratio [blood circulating dose]/[circulating dose at IC50 quantity]: 0.11
[2]; [27]
  AUC: 33300 ng·h/mL

## Nc1nc2cccc(-c3ccc(CN4CCS(=O)(=O)CC4)cc3)n2n1 [Formula I, 5-[4-(1,1-Dioxothiomorpholin-4-ylmethyl)-phenyl]-[1,2,4]triazolo[1,5-a]pyridin-2-ylamine]
[1]; [4]
  Ratio [blood circulating dose]/[circulating dose at IC50 quantity]: 0.97
[1]; [5]
  Ratio [blood circulating dose]/[circulating dose at IC50 quantity]: 0.93
[1]; [6]
  Ratio [blood circulating dose]/[circulating dose at IC50 quantity]: 0.88
[1]; [7]
  Ratio [blood circulating dose]/[circulating dose at IC50 quantity]: 0.97
[1]; [8]
  Ratio [blood circulating dose]/[circulating dose at IC50 quantity]: 1.00
[1]; [9]
  Ratio [blood circulating dose]/[circulating dose at IC50 quantity]: 1.13
[1]; [10]
  Ratio [blood circulating dose]/[circulating dose at IC50 quantity]: 0.96
[1]; [11]
  Ratio [blood circulating dose]/[circulating dose at IC50 quantity]: 0.86
[1]; [12]
  Ratio [blood circulating dose]/[circulating dose at IC50 quantity]: 0.93
[1]; [13]
  Ratio [blood circulating dose]/[circulating dose at IC50 quantity]: 0.88
[1]; [14]
  Ratio [blood circulating dose]/[circulating dose at IC50 quantity]: 0.97
[1]; [15]
  Ratio [blood circulating dose]/[circulating dose at IC50 quantity]: 1.00
[1]; [16]
  Ratio [blood circulating dose]/[circulating dose at IC50 quantity]: 1.13
[1]; [17]
  Ratio [blood circulating dose]/[circulating dose at IC50 quantity]: 0.96
[1]; [18]
  Ratio [blood circulating dose]/[circulating dose at IC50 quantity]: 0.86
[1]; [19]
  Ratio [blood circulating dose]/[circulating dose at IC50 quantity]: 0.69
[1]; [20]
  Ratio [blood circulating dose]/[circulating dose at IC50 quantity]: 0.65
[1]; [21]
  Ratio [blood circulating dose]/[circulating dose at IC50 quantity]: 0.69
[1]; [22]
  Ratio [blood circulating dose]/[circulating dose at IC50 quantity]: 0.84
[1]; [23]
  Ratio [blood circulating dose]/[circulating dose at IC50 quantity]: 0.96
[1]; [24]
  Ratio [blood circulating dose]/[circulating dose at IC50 quantity]: 1.00
[1]; [25]
  Ratio [blood circulating dose]/[circulating dose at IC50 quantity]: 0.93
[1]; [26]
  Ratio [blood circulating dose]/[circulating dose at IC50 quantity]: 0.84
[3]
  IC50: 15.4 µM
[2]; Sprague-Dawley, plasma, 20 mg/kg, administration of Formula I, oral, read-out: Apparent terminal half life (converted)
  half-life: 7 h
[2]; Sprague-Dawley, plasma, female, Formula I 20 mg/kg single oral dose, read-out: AUC
  AUC: 25200 ng·h/mL
[2]; Sprague-Dawley, plasma, female, Formula I 60 mg/kg single oral dose, read-out: AUC
  AUC: 123000 ng·h/mL
[2]; Sprague-Dawley, plasma, female, Formula I 180 mg/kg single oral dose, read-out: AUC
  AUC: 541000 ng·h/mL
[2]; Sprague-Dawley, plasma, male, Formula I 20 mg/kg single oral dose, read-out: AUC
  AUC: 19700 ng·h/mL
[2]; Sprague-Dawley, plasma, male, Formula I 60 mg/kg single oral dose, read-out: AUC
  AUC: 102000 ng·h/mL
[2]; Sprague-Dawley, plasma, male, Formula I 180 mg/kg single oral dose, read-out: AUC
  AUC: 376000 ng·h/mL
[2]; after Formula II 45 mg/kg oral
  Ratio I/II of exposure (AUC Formula I : AUC Formula II): 0.40
[2]; [27]
  AUC: 13300 ng·h/mL
